In US20240383908A1, “SYNTHESIS AND APPLICATION OF PHOSPHATASE DEGRADER” (HINOVA PHARMACEUTICALS INC., priority 2021, published 2024):

Target: T1, SHP2 protein (Homo sapiens, UniProt Q06124)
T1 sequence (Q06124 1-593): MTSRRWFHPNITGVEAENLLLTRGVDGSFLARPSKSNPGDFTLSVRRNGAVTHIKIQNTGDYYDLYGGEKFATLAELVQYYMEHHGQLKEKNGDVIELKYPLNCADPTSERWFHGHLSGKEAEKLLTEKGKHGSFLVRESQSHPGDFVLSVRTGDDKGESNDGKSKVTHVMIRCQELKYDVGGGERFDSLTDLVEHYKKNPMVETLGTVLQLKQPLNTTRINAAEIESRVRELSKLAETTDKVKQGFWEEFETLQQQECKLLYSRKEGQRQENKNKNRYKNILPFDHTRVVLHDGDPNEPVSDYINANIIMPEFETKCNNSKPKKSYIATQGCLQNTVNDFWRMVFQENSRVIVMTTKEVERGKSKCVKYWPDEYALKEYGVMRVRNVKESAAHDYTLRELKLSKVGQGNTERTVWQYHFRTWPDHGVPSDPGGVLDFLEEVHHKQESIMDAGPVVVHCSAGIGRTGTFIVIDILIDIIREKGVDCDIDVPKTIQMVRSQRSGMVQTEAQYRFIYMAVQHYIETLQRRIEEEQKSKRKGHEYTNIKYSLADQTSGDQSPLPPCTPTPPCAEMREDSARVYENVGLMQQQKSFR
Test: Degradation activity on SHP2 protein in MIA Paca-2 cells (Western blot, DC50)
Assay type: cell-based
Design: endogenous in cells; host or cells: MIA Paca-2 cells
Conditions: read-out: Degradation activity for differenct cell lines MIA Paca-2 (DC50)
How it was run: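 Cells were treated 24 h at 37 °C with compound (0.1–100 nM final, 0.1% DMSO). SHP2 was measured by Western blot with GAPDH as loading control, densitometry normalized to DMSO (100%). DC50, the concentration giving 50% degradation, came from a dose-response fit.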

Structure (SMILES) | DC50
CC1(N)CCN(c2cnc(Sc3cccc(NC(=O)C4(c5ccc(N6CCN(c7ccc(C(=O)NCc8ccc9c(c8)CN(C8CCC(=O)NC8=O)C9=O)nc7)CC6)cc5)CC4)c3)cn2)CC1 (stereo not drawn) [Compound 332] | > 1000 nM
CC1(N)CCN(c2cnc(Sc3cccc(NC(=O)c4ccc(-c5ccc(N6CCC(C7=CCC(C(=O)NCc8ccc9c(c8)CN(C8CCC(=O)NC8=O)C9=O)CC7)CC6)cc5)cc4)c3)cn2)CC1 (stereo not drawn) [Compound 423] | > 1000 nM
CC1(N)CCN(c2cnc(Sc3cccc(NCc4ccc(CN5CCN(c6ccc7c(c6)CN(C6CCC(=O)NC6=O)C7=O)CC5)cc4)c3)cn2)CC1 (stereo not drawn) [Compound 254] | > 1000 nM
Cc1cc(C(=O)NCc2ccc3c(c2)CN(C2CCC(=O)NC2=O)C3=O)ncc1C1=CCN(C2CCN(c3ccc(C(=O)Nc4cccc(Sc5cnc(N6CCC7(CC6)CO[C@@H](C)[C@H]7N)cn5)c4)cc3F)CC2)CC1 (stereo partly drawn) [Compound 458] | > 1000 nM
Cc1cc(C(=O)Nc2cccc(Sc3cnc(N4CCC(C)(N)CC4)cn3)c2)ccc1N1CCC(N2CC=C(c3ccc(C(=O)NCc4ccc5c(c4)CN(C4CCC(=O)NC4=O)C5=O)nc3Cl)CC2)CC1 (stereo not drawn) [Compound 441] | > 1000 nM
CC1(N)CCN(c2cnc(Sc3cccc(NC(=O)C4CCC(N5CCN(c6ccc7c(c6)CN(C6CCC(=O)NC6=O)C7=O)CC5)CC4)c3)cn2)CC1 (stereo not drawn) [Compound 271] | > 1000 nM
CC1(N)CCN(c2cnc(Sc3cccc(NC(=O)C4CC45CCC(N4CC=C(c6ccc(C(=O)NCc7ccc8c(c7)CN(C7CCC(=O)NC7=O)C8=O)nc6)CC4)CC5)c3)cn2)CC1 (single isomer, unassigned) [Compound 314] | > 1000 nM
C[C@@H]1OCC2(CCN(c3cnc(Sc4cccc(NC(=O)c5ccc(N6CCC(N7CC=C(c8ccc(C(=O)NCc9ccc%10c(c9)CN(C9CCC(=O)NC9=O)C%10=O)nc8Cl)CC7)CC6)c(F)c5)c4)cn3)CC2)[C@@H]1N (stereo partly drawn) [Compound 463] | > 1000 nM
CC1(N)CCN(c2cnc(Sc3cccc(NC(=O)c4ccc(N5CCC(N6CCN(c7ccc8c(c7)C(=O)N(C7CCC(=O)NC7=O)C8=O)CC6)CC5)c(F)c4)c3)cn2)CC1 (stereo not drawn) [Compound 277] | > 1000 nM
C[C@@H]1OCC2(CCN(c3cnc(Sc4cccc(NC(=O)c5ccc(N6CCC(N7CC=C(C8CCC(C(=O)NCc9ccc%10c(c9)CN(C9CCC(=O)NC9=O)C%10=O)CC8)CC7)CC6)c(F)c5)c4)cn3)CC2)[C@@H]1N (stereo partly drawn) [Compound 512] | 100 to 1000 nM
C[C@@H]1OCC2(CCN(c3cnc(Sc4cccc(NC(=O)CCN5CC=C(c6ccc(C(=O)NCc7ccc8c(c7)CN(C7CCC(=O)NC7=O)C8=O)nc6)C(C)(C)C5)c4)cn3)CC2)[C@@H]1N (stereo partly drawn) [Compound 275] | > 1000 nM
CC1(N)CCN(c2cnc(Sc3cccc(NC(=O)CCN4CC=C(c5ccc(C(=O)NCc6ccc7c(c6)CN(C6CCC(=O)NC6=O)C7=O)nc5)C(C)(C)C4)c3)cn2)CC1 (stereo not drawn) [Compound 274] | > 1000 nM
CC1(N)CCN(c2cnc(Sc3cccc(NC(=O)C4CCC(N5CC=C(c6ccc(C(=O)NCc7ccc8c(c7)CN(C7CCC(=O)NC7=O)C8=O)nc6)CC5)CC4)c3)cn2)CC1 (single isomer, unassigned) [Compound 301] | > 1000 nM
CC1(N)CCN(c2cnc(Sc3cccc(NC(=O)[C@H]4C[C@@H]4c4ccc(N5CCN(c6ccc(C(=O)N7CCN(c8ccc9c(c8)CN(C8CCC(=O)NC8=O)C9=O)CC7)nn6)CC5)c(F)c4)c3)cn2)CC1 (stereo partly drawn) [Compound 283] | > 1000 nM

More lines, now with the values ahead:

DC50 | Structure (SMILES)
< 100 nM | C[C@@H]1OCC2(CCN(c3cnc(Sc4cccc(NC(=O)c5ccc(N6CCN(c7ccc(C(=O)NCc8ccc9c(c8)C(=O)N(C8CCC(=O)NC8=O)C9)nn7)CC6)c(F)c5)c4)cn3)CC2)[C@@H]1N (stereo partly drawn) [Compound 261]
< 100 nM | CC1(N)CCN(c2cnc(Sc3cccc(NC(=O)c4ccc(N5CCC(N6CCN(c7cnc(C(=O)NCc8ccc9c(c8)CN(C8CCC(=O)NC8=O)C9=O)cc7Cl)CC6)CC5)c(F)c4)c3)cn2)CC1 (stereo not drawn) [Compound 496]
< 100 nM | Cc1cc(N2CCC(N3CC=C(c4cnc(C(=O)NCc5ccc6c(c5)CN(C5CCC(=O)NC5=O)C6=O)c(F)c4)CC3)CC2)ccc1C(=O)Nc1cccc(Sc2cnc(N3CCC(C)(N)CC3)cn2)c1 (stereo not drawn) [Compound 438]
< 100 nM | C[C@@H]1OCC2(CCN(c3cnc(Sc4cccc(NC(=O)c5ccc(N6CCC(N7CC=C(c8ccc(C(=O)NCc9ccc%10c(c9)CN(C9CCC(=O)NC9=O)C%10=O)nc8)CC7)C6)c(F)c5)c4)cn3)CC2)[C@@H]1N (stereo partly drawn) [Compound 516]
< 100 nM | CC1(N)CCN(c2cnc(Sc3cccc(NC(=O)CCCCN4CCC(N5CCN(c6ccc(C(=O)NCc7ccc8c(c7)CN(C7CCC(=O)NC7=O)C8=O)nn6)CC5C(F)(F)F)C4)c3)cn2)CC1 (stereo not drawn) [Compound 267]
100 to 1000 nM | C[C@@H]1OCC2(CCN(c3cnc(Sc4cccc(NC(=O)c5ccc(CN6CC7(CCN(c8ccc(C(=O)NCc9ccc%10c(c9)CN(C9CCC(=O)NC9=O)C%10=O)cn8)C7)C6)cc5)c4)cn3)CC2)[C@@H]1N (stereo partly drawn) [Compound 490]
< 100 nM | C[C@@H]1OCC2(CCN(c3cnc(Sc4cccc(NC(=O)c5ccc(N6CCC(N7CC=C(c8ccc(C(=O)NCc9ccc%10c(c9)CN(C9CCC(=O)NC9=O)C%10=O)nc8)CC7)CC6)cc5)c4)cn3)CC2)[C@@H]1N (stereo partly drawn) [Compound 411]
< 100 nM | Cc1cc(N2CCC(N3CC=C(c4ccc(C(=O)NCc5ccc6c(c5)CN(C5CCC(=O)NC5=O)C6=O)nc4F)CC3)CC2)ccc1C(=O)Nc1cccc(Sc2cnc(N3CCC(C)(N)CC3)cn2)c1 (stereo not drawn) [Compound 468]
100 to 1000 nM | CC1(N)CCN(c2cnc(Sc3cccc(NC(=O)c4cnc(N5CCC(N6CC=C(c7ccc(C(=O)NCc8ccc9c(c8)CN(C8CCC(=O)NC8=O)C9=O)nn7)CC6)CC5)cn4)c3)cn2)CC1 (stereo not drawn) [Compound 429]
< 100 nM | C[C@@H]1OCC2(CCN(c3cnc(Sc4cccc(NC(=O)c5ccc(C6CC(N7CC=C(c8ccc(C(=O)NCc9ccc%10c(c9)CN(C9CCC(=O)NC9=O)C%10=O)nc8)CC7)C6)cc5)c4)cn3)CC2)[C@@H]1N (stereo partly drawn) [Compound 504]
< 100 nM | CC1(N)CCN(c2cnc(Sc3cccc(NC(=O)C4CCC(N5CCC(N6CC=C(c7ccc(C(=O)NCc8ccc9c(c8)CN(C8CCC(=O)NC8=O)C9=O)nn7)CC6)CC5)CC4)c3)cn2)CC1 (stereo not drawn) [Compound 339]
< 100 nM | CC1(N)CCN(c2cnc(Sc3cccc(NC(=O)c4ccc(N5CCC(N6CC=C(c7ccc(C(=O)N8CCN(c9ccc%10c(c9)CN(C9CCC(=O)NC9=O)C%10=O)CC8)nc7)C(C)(C)C6)CC5)cc4)c3)cn2)CC1 (stereo not drawn) [Compound 304]
< 100 nM | CC1(N)CCN(c2cnc(Sc3cccc(NC(=O)c4ccc(N5CCC(N6CC=C(c7ccc(C(=O)Nc8ccc9c(c8)CN(C8CCC(=O)NC8=O)C9=O)nn7)CC6)CC5)cc4)c3)cn2)CC1 (stereo not drawn) [Compound 330]
< 100 nM | CC1(N)CCN(c2cnc(Sc3cccc(NC(=O)c4ccc(N5CCC(N6CC=C(c7ccc(C(=O)Nc8ccc9c(c8)CN(C8CCC(=O)NC8=O)C9=O)nn7)CC6)CC5)nc4)c3)cn2)CC1 (stereo not drawn) [Compound 327]
< 100 nM | C[C@@H]1OCC2(CCN(c3cnc(Sc4cccc(NC(=O)c5ccc(N6CCC(N7CC=C(c8ncc(C(=O)NCc9ccc%10c(c9)CN(C9CCC(=O)NC9=O)C%10=O)cc8F)CC7)CC6)c(F)c5)c4)cn3)CC2)[C@@H]1N (stereo partly drawn) [Compound 466]
< 100 nM | C[C@@H]1OCC2(CCN(c3cnc(Sc4cccc(NC(=O)c5ccc(N6CCC(N7CCN(c8ccc(C(=O)NCc9ccc%10c(c9)CN(C9CCC(=O)NC9=O)C%10=O)cc8F)CC7)CC6)c(F)c5)c4)cn3)CC2)[C@@H]1N (stereo partly drawn) [Compound 515]
